From patent publication US6703421B1, “Methods of using phenylmethylbenzoquinone and hydroquinone compounds for treatment of myocarditis, dilated cardiomyopathy and heart failure” (Daiichi Suntory Pharma Co., Ltd., priority 1999, dated 2004)
Read-outs that look alike come from different tables or passages of the source.

Assays:
rat adjuvant arthritis = conditions: Pierce J W, et al. (1997) J. Biol. Chem. 272, 21096-21103; cited from earlier work
NF-κB = NF-κB luciferase reporter assay in A549/NF-κBLuc cells; type: cell-based, human; conditions: Homo sapiens, A549/NF-κBLuc, luciferase activity
Protocol: Using lipofectamine (Lifetech Oriental K. K., Tokyo) according to the conventional method, human lung cancer cell line A549 cells (ATCC catalog no. CCL185), which are known to express hiNOS by cytokine stimulation, were co-transfected with pNFκB-Luc, which are plasmid controlled by a NF-κB binding consensus sequence, and pSV2neo (Clontech, U.S.A.), and then A549/NF-κBLuc, the cell that has stably introduced pNFκB-Luc, was selected by adding G418 sulfate (1 mg/ml, Lifetech Oriental K. K.) to the culture medium.
The luciferase activity was measured using the Luciferase Assay System (Promega, U.S.A.).

[1] = tested on: EMC virus-inoculated DBA/2 mice (viral myocarditis); experiment: Survival rate in murine viral myocarditis model; type: in vivo, mouse; conditions: 10% DMSO, Kaplan-Meier p<0.05, FIG. 3
Protocol: Viral myocarditis mice were prepared using the procedure described below in accordance with a known method (Shioi T. et al. (1997) J. Mol. Cell. Cardiol., 29, 2327-2334). Variant M (acquired from the American Type Culture Collection) was used for the EMC virus for inoculation and prepared to 100 pfu/ml in Eagle's MEM medium (Nissui Pharmaceutical). Four-week-old DBA/2 male mice were divided into two groups, and intraperitoneally inoculated with EMC virus at 10 pfu/animal. Test compound was then administered intraperitoneally and daily for 14 days under the following conditions to each group starting 3 hours after inoculation.
The test compound was used after dissolving in 0.5% aqueous gum arabic solution (3 mg/ml). In the present example, the compound of Production Example 4 was used in the test as the NF-κB inhibitor.
Test group (n=10): Administration of NF-κB inhibitor (Production Example 4) at 30 mg/kg body weight Control group (n=10): 0.5% aqueous gum arabic solution
The experiment was conducted in the following three groups using the same method as Example 2 and the compound of Production Example 7 for the NF-κB inhibitor. The test compound was used after dissolving in 10% aqueous dimethylsulfoxide solution (DMSO) (test group 1: 0.3 mg/ml, test group 2: 3 mg/ml). The survival rates were tested for the presence of a significant difference according to the Kaplan-Meier method, and statistical significance was defined as p<0.05.
Test group 1 (n=21): Administration of NF-κB inhibitor (Production Example 7) at 3 mg/kg body weight
Test group 2 (n=21): Administration of NF-κB inhibitor (Production Example 7) at 30 mg/kg body weight
Four-week-old DBA/2 male mice were inoculated with EMC virus using the same method as Example 2, and the test compound was administered orally and daily for 14 days under the following conditions to each group starting 2 hours after inoculation.
The test compound was used after dissolving in 10% aqueous sulfobutylcyclodextrin solution (3 mg/ml). In the present example, the compound of Production Example 44 was used in the test as the NF-κB inhibitor.
Test group (n=20): Administration of NF-κB inhibitor (Production Example 44) at 30 mg/kg body weight

iNOS = iNOS mRNA level in heart by TaqMan PCR, murine myocarditis model; type: in vivo, mouse; conditions: 30 mg/kg intraperitoneally daily for 5 days, heart day 5, corrected with GAPDH, vs infected control; FIG. 6
Protocol: (§1) Four-week-old DBA/2 male mice were inoculated with EMC virus in the same manner as Example 3 followed by intraperitoneal administration of the compound of Production Example 7 dissolved in 10% DMSO or 10% DMSO only daily for 5 days starting 2 hours after inoculation. The whole hearts were excised from mice of the Production Example 7 compound group, 10% DMSO group and non-infected group on day 5 of viral infection, and after extracting RNA using ISOGEN (Wako Pure Chemical Industries), cDNA was obtained in accordance with the procedure of the SuperScript Preamplification System (Lifetech Oriental). The mRNA levels of TNF-α, IL-1β and iNOS were assayed by TaqMan PCR using this cDNA as templates. Detection was performed using the PRISM7700 (PE Biosystems Japan) in accordance with the protocol of the PCR assay system (PE Biosystems Japan). The following primers and TaqMan probes were used for detection.
(§2) The amount of RNA of each sample was corrected with the amount of glyceraldehyde-3-phosphate dehydrogenase (GAPDH) gene.
(§3) Infected group (administered compound of Production Example 7) (n=10) Administration of NF-κB inhibitor (Production Example 7) at 30 mg/kg body weight

TNF-α = TNF-α mRNA level in heart by TaqMan PCR, murine myocarditis model; type: in vivo, mouse; conditions: 30 mg/kg intraperitoneally daily for 5 days, heart day 5, corrected with GAPDH, vs infected control; FIG. 6
Protocol: as §1, §2, §3

IL-1β = IL-1β mRNA level in heart by TaqMan PCR, murine myocarditis model; type: in vivo, mouse; conditions: 30 mg/kg intraperitoneally daily for 5 days, heart day 5, corrected with GAPDH, vs infected control; FIG. 6
Protocol: as §1, §2, §3

[2] = tested on: EMC virus-inoculated DBA/2 mice (viral myocarditis); experiment: Histopathology of heart (cardiac necrosis, cellular infiltration) in murine myocarditis model; type: in vivo, mouse; conditions: 30 mg/kg, hearts on days 7 and 8, score 0-4, vs control group; FIG. 5
Protocol: NF-κB inhibitor (compound of Production Example 7) was administered at 30 mg/kg body weight using the similar method as Example 3 to the mouse myocarditis model prepared in the similar manner as Example 2. The whole hearts of those mice alive on days 7 and 8 (n=10) were extripated, exsanguinated and washed with phosphate-buffered saline. Subsequently, paraffin embedded and sectioned specimens were prepared by fixing the tissue with 10% formalin. The specimens were stained with hematoxylin-eosin stain followed by examination of histopathological findings.
In cross-sectional images taken along the minor axis of the left ventricle under light microscopy, the percentage of cardiac necrosis features or cellular infiltration was classified into 0 (no damage), 1 (less than 25%), 2 (25% to less than 50%), 3 (50% to less than 75%) and 4 (75% or more), and respectively observed by two observers. The evaluations of the two observers were averaged to obtain a single evaluation. The results obtained were tested for the presence of a significant difference by analysis of variance (ANOVA) according to Bonferroni's multiple comparison method, and statistical significance was defined as p<0.05.
Test group (n=10): Administration of NF-κB inhibitor (Production Example 7) at 30 mg/kg body weight

CC(C)(C)c1ccc(S(=O)(=O)/C=C/C#N)cc1 [BAY11-7083]
effect in rat adjuvant arthritis (rat adjuvant arthritis): exhibit an effect

COC1=C(OC)C(=O)C(Cc2ccc(CCC(=O)N3CCCCC3)cc2)=C(C)C1=O [Prod. Ex. 7]
IC50 (NF-κB; IL-1β (1 ng/ml) for 4 hours, read-out: IC50 (μM) IL-1 stimulation): 4 µM | IC50 (NF-κB; TNF-α (500 ng/ml) for 4 hours, read-out: IC50 (μM) TNF stimulation): 10 µM | survival rate ([1]; 3 mg/kg intraperitoneally daily for 14 days): significantly improve survival rate | survival rate ([1]; 30 mg/kg intraperitoneally daily for 14 days): significantly improve survival rate | expression of iNOS at the mRNA level (iNOS): significantly inhibited | expression of TNF-α at the mRNA level (TNF-α): significantly inhibited | expression of IL-1β at the mRNA level (IL-1β): significantly inhibited | cardiac necrosis [2]: significantly inhibited | cellular infiltration [2]: significantly inhibited
